According to patent publication US6995143B2, “Macrolides with antibacterial activity” (Basilea Pharmaceutica AG, priority 2002, dated 2006):
In brackets after ≈: the same amount, converted by molar mass.

Legend:
Type in all cases: cell-based
[1] = tested on: Staphylococcus aureus 745; test: MIC, standard microdilution technique; conditions: for MIC: read-out: minimum inhibitory concentration (MIC), Strain C
Source text: (§1) The antibacterial activities of the compounds have been determined by standard microdilution technique (National Committee for Clinical Laboratory Standards. 2000. Methods for Dilution Antimicrobial Susceptibility Tests for Bacteria that Grow Aerobically, 5th edition. Approved standard M7-A5. National Committee for Clinical Laboratory Standards, Wayne, Pa.).

[2] = tested on: Streptococcus pneumoniae l/l; test: MIC, standard microdilution technique; conditions: for MIC: read-out: minimum inhibitory concentration (MIC), Strain E
Source text: as §1

[3] = tested on: Staphylococcus aureus ATCC 29213; test: MIC, standard microdilution technique; conditions: for MIC: ATCC29213, read-out: minimum inhibitory concentration (MIC), Strain A
Source text: as §1

[4] = tested on: Escherichia coli ATCC 25922; test: MIC, standard microdilution technique; conditions: for MIC: ATCC25922, read-out: minimum inhibitory concentration (MIC), Strain D
Source text: as §1

[5] = tested on: Streptococcus pneumoniae ¼; test: MIC, standard microdilution technique; conditions: for MIC: read-out: minimum inhibitory concentration (MIC), Strain F
Source text: as §1

[6] = tested on: Streptococcus pneumoniae SL199T; test: MIC, standard microdilution technique; conditions: for MIC: read-out: minimum inhibitory concentration (MIC), Strain G
Source text: as §1

[7] = tested on: Streptococcus pneumoniae 12288; test: MIC, standard microdilution technique; conditions: for MIC: read-out: minimum inhibitory concentration (MIC), Strain H
Source text: as §1

[8] = tested on: Staphylococcus aureus 1086; test: MIC, standard microdilution technique; conditions: for MIC: read-out: minimum inhibitory concentration (MIC), Strain B
Source text: as §1

[9] = tested on: Haemophilus influenzae QK50; test: MIC, standard agar dilution method using HTM medium; conditions: for MIC: read-out: minimum inhibitory concentration (MIC), Strain L
Source text: as §1, with “biological” for “antibacterial”, “of compounds of” for “of”, “present invention against Haemophilus influenzae” for “compounds”, “agar dilution method using HTM medium” for “microdilution technique”

[10] = tested on: Haemophilus influenzae 12214; test: as above; conditions: for MIC: read-out: minimum inhibitory concentration (MIC), Strain K
Source text: as §1, with “biological” for “antibacterial”, “of compounds of” for “of”, “present invention against Haemophilus influenzae” for “compounds”, “agar dilution method using HTM medium” for “microdilution technique”

[11] = tested on: Haemophilus influenzae B1501; test: as above; conditions: for MIC: read-out: minimum inhibitory concentration (MIC), Strain M
Source text: as §1, with “biological” for “antibacterial”, “of compounds of” for “of”, “present invention against Haemophilus influenzae” for “compounds”, “agar dilution method using HTM medium” for “microdilution technique”

[12] = tested on: Haemophilus influenzae QK12/87; test: as above; conditions: for MIC: read-out: minimum inhibitory concentration (MIC), Strain I
Source text: as §1, with “biological” for “antibacterial”, “of compounds of” for “of”, “present invention against Haemophilus influenzae” for “compounds”, “agar dilution method using HTM medium” for “microdilution technique”

| minimum inhibitory concentration (MIC), Strain C [1] | minimum inhibitory concentration (MIC), Strain E [2] | minimum inhibitory concentration (MIC), Strain A [3] | minimum inhibitory concentration (MIC), Strain D [4] | minimum inhibitory concentration (MIC), Strain F [5] | minimum inhibitory concentration (MIC), Strain G [6] | minimum inhibitory concentration (MIC), Strain H [7] | minimum inhibitory concentration (MIC), Strain B [8] | minimum inhibitory concentration (MIC), Strain L [9] | minimum inhibitory concentration (MIC), Strain K [10] | minimum inhibitory concentration (MIC), Strain M [11] | minimum inhibitory concentration (MIC), Strain I [12] | Compound | also measured |
| --- | --- | --- | --- | --- | --- | --- | --- | --- | --- | --- | --- | --- | --- |
| >32 µg/mL | <=0.06 μg/ml | 0.25 µg/mL (≈ 0.304 µM) | >32 µg/mL | 0.5 µg/mL (≈ 0.608 µM) | 16 µg/mL (≈ 19.5 µM) | >32 µg/mL | 0.25 µg/mL (≈ 0.304 µM) | 8 µg/mL (≈ 9.73 µM) | 8 µg/mL (≈ 9.73 µM) | 4 µg/mL (≈ 4.87 µM) | 8 µg/mL (≈ 9.73 µM) | CC[C@H]1OC(=O)[C@H](C)C(=O)[C@H](C)[C@@H](O[C@@H]2O[C@H](C)C[C@H](N(C)C)[C@H]2O)[C@](C)(OC)C[C@@H](C)C(=O)[C@H](C)[C@H]2[C@@H](SCC(=O)c3ccc(OC)cc3OC)C(=O)O[C@@]21C [Example 45] |  |
| >32 µg/mL | <=0.06 μg/ml | 0.125 µg/mL (≈ 0.151 µM) | >32 µg/mL | 0.125 µg/mL (≈ 0.151 µM) | 0.5 µg/mL (≈ 0.604 µM) | 4 µg/mL (≈ 4.83 µM) | 0.125 µg/mL (≈ 0.151 µM) | 4 µg/mL (≈ 4.83 µM) | 4 µg/mL (≈ 4.83 µM) | 4 µg/mL (≈ 4.83 µM) | 4 µg/mL (≈ 4.83 µM) | CC[C@H]1OC(=O)[C@H](C)C(=O)[C@H](C)[C@@H](O[C@@H]2O[C@H](C)C[C@H](N(C)C)[C@H]2O)[C@](C)(OC)C[C@@H](C)C(=O)[C@H](C)[C@H]2[C@@H](SCC(=O)Nc3cccc4cnccc34)C(=O)O[C@@]21C [Example 40] |  |

Continued, molecule first:

| Compound | minimum inhibitory concentration (MIC), Strain C [1] | minimum inhibitory concentration (MIC), Strain E [2] | minimum inhibitory concentration (MIC), Strain A [3] | minimum inhibitory concentration (MIC), Strain D [4] | minimum inhibitory concentration (MIC), Strain F [5] | minimum inhibitory concentration (MIC), Strain G [6] | minimum inhibitory concentration (MIC), Strain H [7] | minimum inhibitory concentration (MIC), Strain B [8] | minimum inhibitory concentration (MIC), Strain L [9] | minimum inhibitory concentration (MIC), Strain K [10] | minimum inhibitory concentration (MIC), Strain M [11] | minimum inhibitory concentration (MIC), Strain I [12] | also measured |
| --- | --- | --- | --- | --- | --- | --- | --- | --- | --- | --- | --- | --- | --- |
| CC[C@H]1OC(=O)[C@@](C)(F)C(=O)[C@H](C)[C@@H](O[C@@H]2O[C@H](C)C[C@H](N(C)C)[C@H]2O)[C@](C)(OC)C[C@@H](C)C(=O)[C@H](C)[C@H]2[C@@H](SCCn3cnc(-c4cccnc4)n3)C(=O)O[C@@]21C (single isomer, unassigned) [Example 12, (3R or S, 3aR, 4R or S, 6R, 8R, 9R, 10R, 12S, 15R, 15aS)-15-Ethyl-12-fluorooctahydro-8-methoxy-4,6,8,10,12,15a-hexamethyl-3-[[2-[3-(3-pyridinyl)-1H-1,2,4-triazole-1-yl]ethyl]thio]-9-[[3,4,6-trideoxy-3-(dimethylamino)-β-D-xylo-hexopyranosyl]oxy]-2H-furo [2,3-c] oxacyclotetradecin-2,5,11,13 (3H,6H,12H)-tetrone] |  |  |  |  |  |  |  |  |  |  |  |  | MIC [1]: > 32 µg/mL; MIC [2]: ≤ 0.06 µg/mL; MIC [3]: ≤ 0.06 µg/mL; MIC [4]: > 32 µg/mL; MIC [5]: ≤ 0.06 µg/mL; MIC [6]: 0.25 µg/mL (≈ 0.3 µM); MIC [7]: 4 µg/mL (≈ 4.8 µM); MIC [8]: ≤ 0.06 µg/mL; MIC [9]: 4 µg/mL (≈ 4.8 µM); MIC [10]: 4 µg/mL (≈ 4.8 µM); MIC [11]: 4 µg/mL (≈ 4.8 µM); MIC [12]: 8 µg/mL (≈ 9.59 µM) |
| CC[C@H]1OC(=O)[C@@](C)(F)C(=O)[C@H](C)[C@@H](O[C@@H]2O[C@H](C)C[C@H](N(C)C)[C@H]2O)[C@](C)(OC)C[C@@H](C)C(=O)[C@H](C)[C@H]2[C@@H](SCc3ccc(OC)cc3)C(=O)O[C@@]21C (single isomer, unassigned) [Example 1, (3R or S, 3aR, 4R or S, 6R, 8R, 9R, 10R, 12S, 15R, 15aS)-15-Ethyl-12-fluorooctahydro-8-methoxy-3-[[(4-methoxyphenyl)methyl]thio]-4,6,8,10,12,15a-hexamethyl-9-[[3,4,6-trideoxy-3-(dimethylamino)-β-D-xylo-hexopyranosyl]oxy]-2H-furo [2,3-c] oxacyclotetradecin-2,5,11,13 (3H,6H,12H)-tetrone] |  |  |  |  |  |  |  |  |  |  |  |  | MIC [1]: > 32 µg/mL; MIC [2]: 0.5 µg/mL (≈ 0.639 µM); MIC [3]: 2 µg/mL (≈ 2.56 µM); MIC [4]: > 32 µg/mL; MIC [5]: 8 µg/mL (≈ 10.2 µM); MIC [6]: 32 µg/mL (≈ 40.9 µM); MIC [7]: > 32 µg/mL; MIC [8]: 2 µg/mL (≈ 2.56 µM); MIC [9]: 32 µg/mL (≈ 40.9 µM); MIC [10]: > 32 µg/mL; MIC [11]: 32 µg/mL (≈ 40.9 µM); MIC [12]: > 32 µg/mL |
| CC[C@H]1OC(=O)[C@@](C)(F)C(=O)[C@H](C)[C@@H](O[C@@H]2O[C@H](C)C[C@H](N(C)C)[C@H]2O)[C@](C)(OC)C[C@@H](C)C(=O)[C@H](C)[C@H]2[C@@H](S(=O)(=O)CCCn3cc(-c4ccccc4)cn3)C(=O)O[C@@]21C [Example 11] | >32 µg/mL | <=0.06 μg/ml | 0.125 µg/mL (≈ 0.142 µM) | >32 µg/mL | 0.25 µg/mL (≈ 0.285 µM) | 4 µg/mL (≈ 4.56 µM) | 16 µg/mL (≈ 18.2 µM) | <=0.06 μg/ml | 4 µg/mL (≈ 4.56 µM) | 8 µg/mL (≈ 9.11 µM) | 4 µg/mL (≈ 4.56 µM) | 8 µg/mL (≈ 9.11 µM) |  |
| CC[C@H]1OC(=O)[C@@](C)(F)C(=O)[C@H](C)[C@@H](O[C@@H]2O[C@H](C)C[C@H](N(C)C)[C@H]2O)[C@](C)(OC)C[C@@H](C)C(=O)[C@H](C)[C@H]2[C@@H](S(=O)(=O)Cc3ccc(OC)cc3)C(=O)O[C@@]21C (single isomer, unassigned) [Example 2] | >32 µg/mL | <=0.06 μg/ml | 2 µg/mL (≈ 2.46 µM) | >32 µg/mL | 4 µg/mL (≈ 4.91 µM) | >32 µg/mL | >32 µg/mL | 2 µg/mL (≈ 2.46 µM) | 32 µg/mL (≈ 39.3 µM) | >32 µg/mL | >32 µg/mL | >32 µg/mL |  |
| CC[C@H]1OC(=O)[C@H](C)C(=O)[C@H](C)[C@@H](O[C@@H]2O[C@H](C)C[C@H](N(C)C)[C@H]2O)[C@](C)(OC)C[C@@H](C)C(=O)[C@H](C)[C@H]2[C@@H](SCCNC(=O)c3cccc4cccnc34)C(=O)O[C@@]21C (single isomer, unassigned) [Example 49] | >32 µg/mL | <=0.06 μg/ml | <=0.06 μg/ml | >32 µg/mL | <=0.06 μg/ml | 2 µg/mL (≈ 2.38 µM) | 16 µg/mL (≈ 19 µM) | <=0.06 μg/ml | 4 µg/mL (≈ 4.75 µM) | 16 µg/mL (≈ 19 µM) | 4 µg/mL (≈ 4.75 µM) | 4 µg/mL (≈ 4.75 µM) |  |
| CC[C@H]1OC(=O)[C@@](C)(F)C(=O)[C@H](C)[C@@H](O[C@@H]2O[C@H](C)C[C@H](N(C)C)[C@H]2O)[C@](C)(OC)C[C@@H](C)C(=O)[C@H](C)[C@H]2[C@@H](S(=O)(=O)CCCn3cnc4c(N)ncnc43)C(=O)O[C@@]21C [Example 58] | >32 µg/mL | <=0.06 μg/ml | 0.5 µg/mL (≈ 0.575 µM) | >32 µg/mL | <=0.06 μg/ml | 0.5 µg/mL (≈ 0.575 µM) | 8 µg/mL (≈ 9.21 µM) | 0.5 µg/mL (≈ 0.575 µM) | 4 µg/mL (≈ 4.6 µM) | 4 µg/mL (≈ 4.6 µM) | 4 µg/mL (≈ 4.6 µM) | 4 µg/mL (≈ 4.6 µM) |  |
